In the test the test system is AKT kinase. The experiment in a line: AKT kinase activity inhibition, summary statement of Test Example 1. The test is classed as biochemical. The note with it: as demonstrated by Test Example 1. As for the experimental part:
g) The plate was sealed, the reaction solution was mixed until uniform and reacted at the room temperature for 1 h, and fluorescence signals were detected by using an ENVISION (Perkinelmer) instrument (320 nm stimulation, 665 nm, 615 nm emission). An inhibition rate in each well was calculated from all active wells and background signal wells, a mean value of repetitive wells was calculated, and the half inhibitory activity (IC50) of each compound to be tested was fitted by using the professional drawing analysis software PRISM 6.0.

Data on 1 molecule can be found in US20230286979A1, “SALT OF DIHYDROPYRIDO[2,3-D]PYRIMIDINONE DERIVATIVE, PREPARATION METHOD THEREFOR, AND USE THEREOF” (NANJING CHIA TAI TIANQING PHARMACEUTICAL CO., LTD., priority 2020, published 2023).

For the molecule `CC(C)NC[C@@H](C(=O)N1CCN(c2ncnc3c2[C@H](C)CC(=O)N3)[C@H]2C[C@H]21)c1ccc(Cl)cc1` (single isomer, unassigned) [Isomer 2 of Example 1], the “inhibiting effect on the AKT kinase activity” value was “has an inhibiting effect”.
